Data published in patent US9017689B2, “Peptides for vaccine against birch allergy” (Circassia Limited, priority 2010, dated 2015).
Read-outs that look alike come from different tables or passages of the source. Ends that are not written are not given here.

How the values were obtained:
[1] = Solubility screening in trehalose matrices pH 2.65 to 7.03; type: physicochemical; details: for solubility: read-out: Solubility [mg per ml];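 on all read-outs here: test items are peptides, each checked for solubility in every trehalose matrix, the matrices made up in distilled deionised water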
Method: The solubility of each of the nine peptides was evaluated in each of the matrices in accordance with Appendix 1.
Each matrix was prepared at a concentration of 10 mM of the buffering agent.
The procedure indicated is for the preparation of 100 mL of each buffer, but alternative volumes can be prepared by adjusting the quantities. • 0.1M stock solutions of sodium citrate and potassium dihydrogen phosphate were prepared. • Weight of trehalose dihydrate equivalent to 260 mM was transferred to an appropriate mixing vessel containing 70-80 mL of distilled deionised water and allowed to dissolve. • 10 mL of the appropriate stock 0.1M buffer solution was added to the mixing vessel and stirred. • The pH of the matrix was adjusted to the desired value by adding 2 mM hydrochloric acid or 0.1M sodium hydroxide as required. • The solutions were finally diluted to 100 g weight and the pH re-assessed.

[2] = test system: Peripheral blood mononuclear cells (PBMCs); assay: Cytokine release assay (IL-10, IL-13, IFN-g multiplex bead assay); type: cell-based, human; details: proportion of subjects in which peptide induced IL-13 or IFN-g above 100 pg/ml; 47 birch allergic subjects; peptide 100 μg/ml; 5 days
Method: Peripheral blood mononuclear cells (PBMCs) were isolated from heparinised blood by Ficoll density gradient centrifugation. […] Following stimulation, culture supernatants (100 μl) were harvested for testing by multiplex bead assay.
Multiplex cytokine bead assays (IL-10, IL-13, Interferon gamma (IFN-g)) were performed on thawed culture supernatants according to the manufacturer's instructions. Single measurements were performed for each culture supernatant sample. After completion of the multiplex assay, individual cytokine levels were determined by interpolation from the standard curve generated in the assay.

[3] = 2 mM HCl and 260 mM trehalose dihydrate, pH 2.65
[4] = 10 mM potassium dihydrogen phosphate and 260 mM trehalose dihydrate, pH 6.03
[5] = 10 mM potassium dihydrogen phosphate and 260 mM trehalose dihydrate, pH 7.03
[6] = 10 mM sodium citrate and 260 mM trehalose dihydrate, pH 3.01
[7] = 10 mM sodium citrate and 260 mM trehalose dihydrate, pH 3.99
[8] = 10 mM sodium citrate and 260 mM trehalose dihydrate, pH 5.02
[9] = 10 mM sodium citrate and 260 mM trehalose dihydrate, pH 6.01
[10] = aqueous buffer, 10 mM potassium dihydrogen phosphate and 260 mM trehalose dihydrate, pH 6.03
[11] = aqueous buffer, 10 mM potassium dihydrogen phosphate and 260 mM trehalose dihydrate, pH 7.03
[12] = aqueous buffer, 10 mM sodium citrate and 260 mM trehalose dihydrate, pH 3.99
[13] = aqueous buffer, 10 mM sodium citrate and 260 mM trehalose dihydrate, pH 5.02
[14] = aqueous buffer, 10 mM sodium citrate and 260 mM trehalose dihydrate, pH 6.01
[15] = water, 2 mM HCl and 260 mM trehalose dihydrate, pH 2.65
[16] = aqueous buffer, 10 mM sodium citrate and 260 mM trehalose dihydrate, pH 3.01

Row | Sequence | Comments (solubility on preparation) [1, 3] | Solubility [mg per ml 'as is'] [1, 3] [mg per ml ‘as is’] | Solubility [μmol per ml] [1, 3] [μmol per ml] | Solubility after 24 Hours [1, 3] | Solubility [mg per ml 'as is'] [1, 4] [mg per ml ‘as is’] | Solubility [μmol per ml] [1, 4] [μmol per ml] | Comments (solubility on preparation) [1, 5] | Solubility [mg per ml 'as is'] [1, 5] [mg per ml ‘as is’] | Solubility [μmol per ml] [1, 5] [μmol per ml] | Solubility after 24 Hours [1, 5] | Comments (solubility on preparation) [1, 6] | Solubility [mg per ml 'as is'] [1, 6] [mg per ml ‘as is’] | Solubility [μmol per ml] [1, 6] [μmol per ml] | Solubility after 24 Hours [1, 6] | Solubility [mg per ml 'as is'] [1, 7] [mg per ml ‘as is’] | Solubility [μmol per ml] [1, 7] [μmol per ml] | Solubility [mg per ml 'as is'] [1, 8] [mg per ml ‘as is’] | Solubility [μmol per ml] [1, 8] [μmol per ml] | Comments (solubility on preparation) [1, 9] | Solubility [mg per ml 'as is'] [1, 9] [mg per ml ‘as is’] | further results
1 | ETLLRAVESYLLAHSDAY [Bir09] | Completely dissolved• | 0.92 | 0.379 | Completely dissolved• | 0.35 | 0.143 | Completely dissolved | 1.52 | 0.627 | Completely dissolved | Undissolved in 1.5 mL• | 0.37 | 0.153 | Undissolved | 0.36 | 0.148 | 0.37 | 0.154 | Completely dissolved | 1.03 | Solubility [mg per ml] [1, 6]: 0.314 mg per ml; Solubility [μmol per ml] [1, 9]: 0.426 μmol per ml; Solubility after 24 Hours [1, 9]: completely dissolved; solubility [1, 10]: ≥ 293 µg/mL; solubility [1, 11]: ≥ 1290 µg/mL; solubility [1, 12]: ≥ 303 µg/mL; solubility [1, 13]: ≥ 315 µg/mL; solubility [1, 14]: ≥ 875 µg/mL; solubility [1, 15]: ≥ 777 µg/mL
2 | IKYMVIQGEAGAVIRGK (GIKYMVIQGEAGAVIRGK; Betulaceae) [Bir13, Bet v2-derived peptide] |  |  |  |  |  |  |  |  |  |  |  |  |  |  |  |  |  |  |  |  | % responders [2]: 23%
3 | AKYMVIQGEPGRVIRGK [Bir12B] | Completely dissolved | 10.22 | 4.490 | Completely dissolved | 23.84 | 10.474 | Completely dissolved | 20.62 | 9.060 | Completely dissolved | Completely dissolved | 5.47 | 2.403 | Completely dissolved | 10.32 | 4.534 | 5.84 | 2.564 | Completely dissolved. | 2.28 | Commute (solubility on preparation) [1, 4]: Completely dissolved; Solubility after 24 Hours [1, 4]: Completely dissolved; Comments (solubility on preparation) [1, 7]: Completely dissolved; Solubility after 24 Hours [1, 7]: Completely dissolved; Comments (solubility on preparation) [1, 8]: Completely dissolved; Solubility after 24 Hours [1, 8]: Completely dissolved; Solubility [μmol per ml] [1, 9]: 1.002 μmol per ml; Solubility after 24 Hours [1, 9]: Completely dissolved.; solubility [1, 10]: ≥ 19900 µg/mL; solubility [1, 11]: ≥ 17200 µg/mL; solubility [1, 16]: ≥ 4570 µg/mL; solubility [1, 12]: ≥ 8630 µg/mL; solubility [1, 13]: ≥ 4880 µg/mL; solubility [1, 14]: ≥ 1910 µg/mL; solubility [1, 15]: ≥ 8540 µg/mL
4 | PGTIKKISFPEGFPFKYV [Bir04] | Completely dissolved | 20.50 | 8.639 | Completely dissolved | 9.86 | 4.155 | Completely dissolved | 21.50 | 9.061 | Completely dissolved | Completely dissolved | 22.58 | 9.516 | Completely dissolved | 20.36 | 8.580 | 21.52 | 9.069 | Completely dissolved. | 10.11 | Commute (solubility on preparation) [1, 4]: Completely dissolved; Solubility after 24 Hours [1, 4]: Completely dissolved; Comments (solubility on preparation) [1, 7]: Completely dissolved; Solubility after 24 Hours [1, 7]: Completely dissolved; Comments (solubility on preparation) [1, 8]: Completely dissolved; Solubility after 24 Hours [1, 8]: Completely dissolved; Solubility [μmol per ml] [1, 9]: 4.261 μmol per ml; Solubility after 24 Hours [1, 9]: Completely dissolved.; solubility [1, 10]: ≥ 8540 µg/mL; solubility [1, 11]: ≥ 18600 µg/mL; solubility [1, 16]: ≥ 19600 µg/mL; solubility [1, 12]: ≥ 17600 µg/mL; solubility [1, 13]: ≥ 18600 µg/mL; solubility [1, 14]: ≥ 8760 µg/mL; solubility [1, 15]: ≥ 17800 µg/mL
5 | SNEIKIVATPEGGSILK [Bir07C] | Completely dissolved | 11.48 | 5.747 | Completely dissolved | 0.42 | 0.208 | Completely dissolved | 6.70 | 3.354 | Completely dissolved | Completely dissolved | 1.30 | 0.653 | Completely dissolved | 0.38 | 0.188 | 0.86 | 0.433 | Completely dissolved in | 0.35 | Commute (solubility on preparation) [1, 4]: Completely dissolved in; Solubility after 24 Hours [1, 4]: Precipitated out,; Comments (solubility on preparation) [1, 8]: Completely dissolved; Solubility after 24 Hours [1, 8]: Completely dissolved; Solubility [μmol per ml] [1, 9]: 0.174 μmol per ml; Solubility after 24 Hours [1, 9]: Precipitated out,; solubility [1, 10]: ≥ 365 µg/mL; solubility [1, 11]: ≥ 5890 µg/mL; solubility [1, 16]: ≥ 1150 µg/mL; solubility [1, 12]: ≥ 330 µg/mL; solubility [1, 13]: ≥ 760 µg/mL; solubility [1, 14]: ≥ 306 µg/mL; solubility [1, 15]: ≥ 10100 µg/mL
